Target: T1, human mAChR M4 (Homo sapiens, UniProt P08173)
T1 construct: expressed in transfected cells
T1 sequence (P08173 1-479): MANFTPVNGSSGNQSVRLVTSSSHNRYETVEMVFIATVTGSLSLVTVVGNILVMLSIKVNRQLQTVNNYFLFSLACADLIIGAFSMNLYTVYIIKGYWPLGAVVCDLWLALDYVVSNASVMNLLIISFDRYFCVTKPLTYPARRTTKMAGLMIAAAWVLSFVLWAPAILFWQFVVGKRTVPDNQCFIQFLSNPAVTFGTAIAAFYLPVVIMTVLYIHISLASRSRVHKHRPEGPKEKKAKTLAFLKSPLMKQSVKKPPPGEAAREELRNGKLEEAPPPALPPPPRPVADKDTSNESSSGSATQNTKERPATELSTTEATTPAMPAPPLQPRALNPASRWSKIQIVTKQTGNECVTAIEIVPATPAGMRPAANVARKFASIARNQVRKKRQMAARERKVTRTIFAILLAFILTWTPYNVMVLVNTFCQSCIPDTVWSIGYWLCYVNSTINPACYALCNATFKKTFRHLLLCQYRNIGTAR
Assay: mAChR M4 cell-based functional assay (calcium mobilization, CHO-K1 hM4-Gqi5 cells)
Details: for Emax at 30 µM: CHO-K1, % ACh maximum at 30 μM, human M4; for EC50: positive allosteric modulator activity, increase in the EC20 acetylcholine response, CHO-K1 hM4-Gqi5 cells, read-out: Human M4 EC50
Procedure, shortened: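 CHO-K1 cells stably expressing human M4 with chimeric Gqi5, loaded with Fluo-4 AM; compounds given as 11-point 1:3 curves and calcium flux read on FDSS at 1 Hz. Acetylcholine EC20 added at 144 s, EC80 at 230 s; agonist, PAM (EC20 potentiation) and antagonist (EC80 inhibition) EC50/Emax from four-parameter fits.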

SMILES | Emax at 30 µM | EC50
Cc1cnccc1CNC(=O)c1cnc(N2CCc3ncc(-c4cn(C)nc4C)cc3C2)c(C)c1 [Example 451, 6-(3-(1,3-dimethyl-1/-pyrazol-4-yl)-7,8-dihydro-1,6-naphthyridin-6(5H)-yl)-5-methyl-N-((3-methylpyridin-4-yl)methyl)nicotinamide] | 92% | 150 nM
Cc1cc(C(=O)NCc2csc3ccccc23)cnc1N1CCc2ncc(-c3cn(C)nc3C)cc2C1 [Example 452, N-(benzo[b]thiophen-3-ylmethyl)-6-(3-(1,3-dimethyl-1H-pyrazol-4-yl)-7,8-dihydro-1,6-naphthyridin-6(5H)-yl)-5-methylnicotinamide] | 89% | 1790 nM
Cc1cc(C(=O)NCc2nc3ccccc3s2)cnc1N1CCc2ncc(-c3cn(C)nc3C)cc2C1 [Example 453, N-(benzo[d]thiazol-2-ylmethyl)-6-(3-(1,3-dimethyl-1H-pyrazol-4-yl)-7,8-dihydro-1,6-naphthyridin-6(5H)-yl)-5-methylnicotinamide] | 92% | 828 nM
Cc1cc(C(=O)NCc2cnc(Cl)s2)cnc1N1CCc2ncc(-c3cn(C)nc3C)cc2C1 [Example 455, N-((2-chlorothiazol-5-yl)methyl)-6-(3-(1,3-dimethyl-1H-pyrazol-4-yl)-7,8-dihydro-1,6-naphthyridin-6(5H)-yl)-5-methylnicotinamide] | 93% | 581 nM
Cc1cc(C(=O)NCc2ccc(C#N)nc2)cnc1N1CCc2ncc(-c3cn(C)nc3C)cc2C1 [Example 456, N-((6-cyanopyridin-3-yl)methyl)-6-(3-(1,3-dimethyl-1H-pyrazol-4-yl)-7,8-dihydro-1,6-naphthyridin-6(5H)-yl)-5-methylnicotinamide] | 75% | 888 nM
Cc1cc(C(=O)NCc2ccccn2)cnc1N1CCc2ncc(-c3cn(C)nc3C)cc2C1 [Example 458, 6-(3-(1,3-dimethyl-1H-pyrazol-4-yl)-7,8-dihydro-1,6-naphthyridin-6(5H)-yl)-5-methyl-N-(pyridin-2-ylmethyl)nicotinamide] | 84% | 562 nM
Cc1cc(C(=O)NCC2CCOCC2)cnc1N1CCc2ncc(-c3cn(C)nc3C)cc2C1 [Example 459, 6-(3-(1,3-dimethyl-1H-pyrazol-4-yl)-7,8-dihydro-1,6-naphthyridin-6(5H)-yl)-5-methyl-N-((tetrahydro-2H-pyran-4-yl)methyl)nicotinamide] | 71% | 1190 nM
Cc1cc(C(=O)NCC(C)C)cnc1N1CCc2ncc(-c3cn(C)nc3C)cc2C1 [Example 460, 6-(3-(1,3-dimethyl-1H-pyrazol-4-yl)-7,8-dihydro-1,6-naphthyridin-6(5H)-yl)-N-isobutyl-5-methylnicotinamide] | 71% | 1830 nM
Cc1cc(C(=O)NCC(C)(C)O)cnc1N1CCc2ncc(-c3cn(C)nc3C)cc2C1 [Example 461, 6-(3-(1,3-dimethyl-1H-pyrazol-4-yl)-7,8-dihydro-1,6-naphthyridin-6(5H)-yl)-N-(2-hydroxy-2-methylpropyl)-5-methylnicotinamide] | 76% | 4100 nM
Cc1cc(C(=O)NCc2ccc(Cl)nc2Cl)cnc1N1CCc2ncc(-c3cn(C)nc3C)cc2C1 [Example 462, N-((2,6-dichloropyridin-3-yl)methyl)-6-(3-(1,3-dimethyl-1H-pyrazol-4-yl)-7,8-dihydro-1,6-naphthyridin-6(5H)-yl)-5-methylnicotinamide] | 72% | 714 nM
Cc1c(C(=O)NCc2csc3ccccc23)nnc(N2CCc3ncc(C(F)(F)F)cc3C2)c1C [Example 463, N-(benzo[b]thiophen-3-ylmethyl)-4,5-dimethyl-6-(3-(trifluoromethyl)-7,8-dihydro-1,6-naphthyridin-6(5H)-yl)pyridazine-3-carboxamide] | 101% | 422 nM
Cc1c(C(=O)NCc2cncs2)nnc(N2CCc3ncc(C(F)(F)F)cc3C2)c1C [Example 465, 4,5-dimethyl-N-(thiazol-5-ylmethyl)-6-(3-(trifluoromethyl)-7,8-dihydro-1,6-naphthyridin-6(5H)-yl)pyridazine-3-carboxamide] | 101% | 44 nM

More lines, now with the values ahead:

Emax at 30 µM | EC50 | SMILES
88% | 517 nM | Cc1cnc2c(c1)CN(c1ncc(C(=O)Nc3ccncc3)cc1C)CC2 [Example 438, 5-methyl-6-(3-methyl-7,8-dihydro-1,6-naphthyridin-6(5H)-yl)-N-(pyridin-4-yl)nicotinamide]
108% | 138 nM | Cc1cnc2c(c1)CN(c1ncc(C(=O)NCc3cncs3)cc1C)CC2 [Example 439, 5-methyl-6-(3-methyl-7,8-dihydro-1,6-naphthyridin-6(5H)-yl)-N-(thiazol-5-ylmethyl)nicotinamide]
88% | 143 nM | Cc1cnc2c(c1)CN(c1ncc(C(=O)NCc3ccncc3C)cc1C)CC2 [Example 441, 5-methyl-6-(3-methyl-7,8-dihydro-1,6-naphthyridin-6(5H)-yl)-N-((3-methylpyridin-4-yl)methyl)nicotinamide]
96% | 424 nM | Cc1cc(C(=O)Nc2ccncc2)cnc1N1CCc2ncc(C(F)(F)F)cc2C1 [Example 442, 5-methyl-N-(pyridin-4-yl)-6-(3-(trifluoromethyl)-7,8-dihydro-1,6-naphthyridin-6(5H)-yl)nicotinamide]
107% | 157 nM | Cc1cc(C(=O)NCc2cncs2)cnc1N1CCc2ncc(C(F)(F)F)cc2C1 [Example 443, 5-methyl-N-(thiazol-5-ylmethyl)-6-(3-(trifluoromethyl)-7,8-dihydro-1,6-naphthyridin-6(5H)-yl)nicotinamide]
100% | 196 nM | Cc1cc(C(=O)NCc2ccncc2)cnc1N1CCc2ncc(C(F)(F)F)cc2C1 [Example 444, 5-methyl-N-(pyridin-4-ylmethyl)-6-(3-(trifluoromethyl)-7,8-dihydro-1,6-naphthyridin-6(5H)-yl)nicotinamide]
100% | 170 nM | Cc1cnccc1CNC(=O)c1cnc(N2CCc3ncc(C(F)(F)F)cc3C2)c(C)c1 [Example 445, 5-methyl-N-((3-methylpyridin-4-yl)methyl)-6-(3-(trifluoromethyl)-7,8-dihydro-1,6-naphthyridin-6(5H)-yl)nicotinamide]
87% | 1140 nM | Cc1cc(C(=O)NCc2cnc3ccccc3c2)cnc1N1CCc2ncc(C(F)(F)F)cc2C1 [Example 446, 5-methyl-N-(quinolin-3-ylmethyl)-6-(3-(trifluoromethyl)-7,8-dihydro-1,6-naphthyridin-6(5H)-yl)nicotinamide]
97% | 1640 nM | Cc1cc(C(=O)NCc2csc3ccccc23)cnc1N1CCc2ncc(C(F)(F)F)cc2C1 [Example 447, N-(benzo[b]thiophen-3-ylmethyl)-5-methyl-6-(3-(trifluoromethyl)-7,8-dihydro-1,6-naphthyridin-6(5H)-yl)nicotinamide]
102% | 537 nM | Cc1cc(C(N)=O)cnc1N1CCc2ncc(C(F)(F)F)cc2C1 [Example 448, 5-methyl-6-(3-(trifluoromethyl)-7,8-dihydro-1,6-naphthyridin-6(5H)-yl)nicotinamide]
105% | 84 nM | Cc1cc(C(=O)NCc2cncs2)cnc1N1CCc2ncc(Nc3ccnn3C)cc2C1 [Example 449, 5-methyl-6-(3-((1-methyl-1H-pyrazol-5-yl)amino)-7,8-dihydro-1,6-naphthyridin-6(5H)-yl)-N-(thiazol-5-ylmethyl)nicotinamide]
71% | 215 nM | Cc1cc(C(=O)Nc2ccncc2)cnc1N1CCc2ncc(-c3cn(C)nc3C)cc2C1 [Example 450, 6-(3-(1,3-dimethyl-1H-pyrazol-4-yl)-7,8-dihydro-1,6-naphthyridin-6(5H)-yl)-5-methyl-N-(pyridin-4-yl)nicotinamide]
60% | 3900 nM | Cc1cc(C(=O)N(C)Cc2ccncc2)cnc1N1CCc2ncc(-c3cn(C)nc3C)cc2C1 [Example 454, 6-(3-(1,3-dimethyl-1/-pyrazol-4-yl)-7,8-dihydro-1,6-naphthyridin-6(5H)-yl)-N,5-dimethyl-N-(pyridin-4-ylmethyl)nicotinamide]
85% | 576 nM | Cc1cc(C(=O)NCc2cccnc2)cnc1N1CCc2ncc(-c3cn(C)nc3C)cc2C1 [Example 457, 6-(3-(1,3-dimethyl-1H-pyrazol-4-yl)-7,8-dihydro-1,6-naphthyridin-6(5H)-yl)-5-methyl-N-(pyridin-3-ylmethyl)nicotinamide]
101% | 36 nM | Cc1cnccc1CNC(=O)c1nnc(N2CCc3ncc(C(F)(F)F)cc3C2)c(C)c1C [Example 464, 4,5-dimethyl-N-((3-methylpyridin-4-yl)methyl)-6-(3-(trifluoromethyl)-7,8-dihydro-1,6-naphthyridin-6(5H)-yl)pyridazine-3-carboxamide]

From patent US20250230155A1 (Vanderbilt University, priority 2021, published 2025)
